Assay results taken from ChEMBL document CHEMBL1201862, “PubChem BioAssay data set” (2004).
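Five compound concentrations were applied to cells in 96-well plates for 48 hours; endpoints were derived by simple linear interpolation of the resulting dose-response curve. GI50 = concentration required for 50% inhibition of growth.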 The source made the active and inactive calls. Cut-off read from the data, not from the text of the source: active = GI50 up to about 1.1 µM and inactive = higher.

Key:
Experiment in all cases: NCI anticancer screen, dose series, 48 h
[1] = tested on: SK-MEL-28
[2] = tested on: K562
[3] = tested on: IGROV-1
[4] = tested on: OVCAR-4
[5] = tested on: HCT-15
[6] = tested on: KM12
[7] = tested on: HCC 2998
[8] = tested on: RXF 393
[9] = tested on: SN12C
[10] = tested on: CCRF-CEM
[11] = tested on: OVCAR-8
[12] = tested on: SK-MEL-2
[13] = tested on: A498
[14] = tested on: SW-620
[15] = tested on: HOP-62
[16] = tested on: OVCAR-5

Compound: O=C(NN1C(=O)C(Cl)C1c1cccc(O)c1)c1ccccc1O (stereo not given)
- GI50 [1]: > 100 µM (inactive)
- GI50 [2]: > 100 µM (inactive)
- GI50 [3]: > 100 µM (inactive)
- GI50 [4]: > 100 µM (inactive)
- GI50 [5]: > 100 µM
- GI50 [6]: > 100 µM (inactive)
- GI50 [7]: > 100 µM (inactive)
- GI50 [8]: > 100 µM (inactive)
- GI50 [9]: > 100 µM (inactive)
- GI50 [10]: > 100 µM (inactive)
- GI50 [11]: > 100 µM (inactive)
- GI50 [12]: > 100 µM (inactive)
- GI50 [13]: > 100 µM (inactive)

Compound: CC1=C(O)C(=O)C2C(=O)C1C(C)C2c1ccc(C)cc1 (stereo not given)
- GI50 [1]: > 100 µM (inactive)
- GI50 [2]: > 100 µM (inactive)
- GI50 [3]: > 100 µM (inactive)
- GI50 [4]: > 100 µM (inactive)
- GI50 [14]: > 100 µM (inactive)
- GI50 [5]: > 100 µM
- GI50 [6]: > 100 µM (inactive)
- GI50 [7]: > 100 µM (inactive)
- GI50 [8]: > 100 µM (inactive)
- GI50 [15]: > 100 µM (inactive)
- GI50 [10]: > 100 µM (inactive)
- GI50 [11]: > 100 µM (inactive)
- GI50 [12]: > 100 µM (inactive)
- GI50 [16]: > 100 µM (inactive)
- GI50 [13]: > 100 µM (inactive)

Compound: O=c1[nH]c2cc(-c3ccccc3)nc-2nn1-c1c(Cl)cc(Cl)cc1Cl
- GI50 [1]: > 100 µM (inactive)
- GI50 [2]: 41.1 µM (inactive)
- GI50 [3]: 38.5 µM (inactive)
- GI50 [14]: 33.7 µM (inactive)
- GI50 [5]: 36 µM
- GI50 [6]: 20.5 µM (inactive)
- GI50 [7]: 4.03 µM (inactive)
- GI50 [9]: 28.6 µM (inactive)
- GI50 [15]: 25.5 µM (inactive)
- GI50 [10]: 28.6 µM (inactive)
- GI50 [11]: 37.4 µM (inactive)
- GI50 [12]: 26.5 µM (inactive)
- GI50 [16]: 39.4 µM (inactive)
- GI50 [13]: 33 µM (inactive)

Compound: C[C@]12CC[C@H](OC(=O)Nc3ccccc3)CC1=CC[C@@H]1C2CC[C@]2(C)/C(=N/OC(=O)Nc3ccccc3)CCC12 (stereo not given in full)
- GI50 [2]: 2.21 µM (inactive)
- GI50 [3]: 4.19 µM (inactive)
- GI50 [4]: 5.66 µM (inactive)
- GI50 [14]: > 100 µM (inactive)
- GI50 [5]: 1.77 µM
- GI50 [6]: 8.15 µM (inactive)
- GI50 [7]: > 100 µM (inactive)
- GI50 [9]: 1.79 µM (inactive)
- GI50 [10]: 2.83 µM (inactive)
- GI50 [11]: 22.3 µM (inactive)
- GI50 [12]: > 100 µM (inactive)
- GI50 [16]: 70.5 µM (inactive)
- GI50 [13]: > 100 µM (inactive)

Compound: C=CCNC(=O)N(CCCC(NC(C)=O)C(=O)NCc1ccccc1)Cc1ccccc1 (stereo not given)
- GI50 [1]: > 100 µM (inactive)
- GI50 [2]: > 100 µM (inactive)
- GI50 [3]: > 100 µM (inactive)
- GI50 [4]: > 100 µM (inactive)
- GI50 [14]: > 100 µM (inactive)
- GI50 [5]: > 100 µM
- GI50 [6]: > 100 µM (inactive)
- GI50 [8]: > 100 µM (inactive)
- GI50 [9]: > 100 µM (inactive)
- GI50 [15]: > 100 µM (inactive)
- GI50 [10]: > 100 µM (inactive)
- GI50 [11]: > 100 µM (inactive)
- GI50 [12]: > 100 µM (inactive)
- GI50 [16]: > 100 µM (inactive)
- GI50 [13]: > 100 µM (inactive)

Compound: CC(C)C1N2CCCCC2[C@@H]2c3[nH]c4ccccc4c3CCN12 (stereo not given in full)
- GI50 [1]: > 100 µM (inactive)
- GI50 [2]: > 100 µM (inactive)
- GI50 [3]: > 100 µM (inactive)
- GI50 [4]: > 100 µM (inactive)
- GI50 [14]: > 100 µM (inactive)
- GI50 [5]: > 100 µM
- GI50 [7]: > 100 µM (inactive)
- GI50 [8]: > 100 µM (inactive)
- GI50 [9]: > 100 µM (inactive)
- GI50 [15]: > 100 µM (inactive)
- GI50 [10]: > 100 µM (inactive)
- GI50 [11]: > 100 µM (inactive)
- GI50 [12]: > 100 µM (inactive)
- GI50 [16]: > 100 µM (inactive)
- GI50 [13]: > 100 µM (inactive)

Compound: CC(=O)CCCCO
- GI50 [1]: > 100 µM (inactive)
- GI50 [2]: > 100 µM (inactive)
- GI50 [3]: > 100 µM (inactive)
- GI50 [4]: > 100 µM (inactive)
- GI50 [14]: > 100 µM (inactive)
- GI50 [5]: > 100 µM
- GI50 [6]: > 100 µM (inactive)
- GI50 [8]: > 100 µM (inactive)
- GI50 [9]: > 100 µM (inactive)
- GI50 [15]: > 100 µM (inactive)
- GI50 [10]: > 100 µM (inactive)
- GI50 [11]: > 100 µM (inactive)
- GI50 [12]: > 100 µM (inactive)
- GI50 [16]: > 100 µM (inactive)
- GI50 [13]: > 100 µM (inactive)
